target: Protein farnesyltransferase (Homo sapiens, UniProt P49354+P49356); assay: Inhibition of Farnesyltransferase; format: protein-complex assay

Compound	IC50 [nM]
N#Cc1cccc(CN(Cc2c[nH]cn2)c2cccc(S(=O)(=O)N3CCCc4ccccc43)c2)c1	570
CCCCOc1ccc(S(=O)(=O)N2CCCc3ccccc32)cc1N(Cc1cnc[nH]1)Cc1cnc[nH]1	480
CSCC[C@H](NC(=O)[C@@H]1Cc2ccccc2CN1C(=O)[C@@H](NC[C@@H](N)CS)C(C)C)C(=O)O	0.6
O=S(=O)(c1cccc(NCc2cnc[nH]2)c1)N1CCCc2ccccc21	15000

Continued by falling IC50, values first:

IC50 [nM]	Compound
130	O=S(=O)(c1cccc(N(Cc2cnc[nH]2)Cc2cnc[nH]2)c1)N1CCCc2ccccc21
0.8	CSCC[C@H](NC(=O)[C@@H]1Cc2ccccc2CN1C(=O)[C@@H](NCCc1cnc[nH]1)C(C)C)C(=O)O
